The target in one test is T1, BRAF (Homo sapiens, UniProt P15056).
T1 construct: purchased Invitrogen
In words: Z'-LYTE kinase inhibition assay against BRAF. As to conditions: Z'-LYTE method. Type of test: biochemical. As for the experimental part: (§1) Inhibitory activities Inhibitory activities of compounds against BRAF, and BRAF V600E were measured by Invitrogen using Z′-LYTE® Method as briefly described in the following. 4× Test compounds are dissolved in 1% DMSO. […] ATP solutions are diluted to a 4×ATP working concentration in Kinase Buffer (50 mM HEPES pH 7.5, 0.01% BRIJ-35, 10 mM MgCl2, 1 mM EGTA). Reaction started by 30-second shaking of mixture consisting of 2.5 μL 4× test compound, […] and 2.5 μL 4×ATP Solution on Bar-coded Corning, low volume NBS, black 384-well plate (Corning Cat. #3676). Then the mixture was incubated for 60-minute at room temperature for the kinase reaction, followed by addition of 5 μL of a 1:1024 dilution of development reagent A and 30-second plate shake. The mixture was then incubated for another 60-minute at room temperature for development reaction. Fluorescence was read by plate reader. IC50 was calculated by plotting the concentration of compound vs the percentage of inhibition in treated wells using GraphPad Prism 5.
(§2) Table 2 and 3 show % inhibition at 1 μM of several compounds of the invention against BRAF and BRAF V600E, respectively, using Z′-LYTE® method.

The target of a further test is T2, BRAF V600E (Homo sapiens, UniProt P15056, V600E).
T2 construct: purchased Invitrogen
T2 sequence (P15056 whole entry V600E): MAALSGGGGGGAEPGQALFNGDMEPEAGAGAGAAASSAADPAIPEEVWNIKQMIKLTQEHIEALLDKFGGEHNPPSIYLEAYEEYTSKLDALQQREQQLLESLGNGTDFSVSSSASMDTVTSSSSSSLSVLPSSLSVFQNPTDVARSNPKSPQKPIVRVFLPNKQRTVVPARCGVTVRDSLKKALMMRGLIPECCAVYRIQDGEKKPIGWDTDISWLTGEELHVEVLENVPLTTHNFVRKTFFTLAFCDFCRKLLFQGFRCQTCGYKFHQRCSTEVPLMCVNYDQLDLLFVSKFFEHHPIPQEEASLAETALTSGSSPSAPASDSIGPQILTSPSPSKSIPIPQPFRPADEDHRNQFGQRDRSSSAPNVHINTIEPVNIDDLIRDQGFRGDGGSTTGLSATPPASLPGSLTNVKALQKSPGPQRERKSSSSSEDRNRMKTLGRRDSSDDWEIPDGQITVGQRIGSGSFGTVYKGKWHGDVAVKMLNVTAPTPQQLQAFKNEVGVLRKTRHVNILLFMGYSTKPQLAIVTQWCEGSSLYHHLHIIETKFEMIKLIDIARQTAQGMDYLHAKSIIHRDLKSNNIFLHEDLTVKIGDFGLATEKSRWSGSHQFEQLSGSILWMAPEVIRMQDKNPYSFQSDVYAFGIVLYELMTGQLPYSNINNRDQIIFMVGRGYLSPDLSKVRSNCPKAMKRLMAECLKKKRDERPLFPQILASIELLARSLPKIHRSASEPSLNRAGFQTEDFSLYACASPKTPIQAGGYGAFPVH
In words: Z'-LYTE kinase inhibition assay against BRAF V600E. Type of test: biochemical. As to conditions: Z'-LYTE method. The protocol:
as §1, §2
The scale utilized in Table 4 is as follows: +++ less than 100 nM; and ++ greater than 100 nM.

For the next test, the target named is T3, KDR (VEGFR2) (Homo sapiens, UniProt P35968).
T3 construct: purchased Invitrogen
T3 sequence (P35968 20-1356): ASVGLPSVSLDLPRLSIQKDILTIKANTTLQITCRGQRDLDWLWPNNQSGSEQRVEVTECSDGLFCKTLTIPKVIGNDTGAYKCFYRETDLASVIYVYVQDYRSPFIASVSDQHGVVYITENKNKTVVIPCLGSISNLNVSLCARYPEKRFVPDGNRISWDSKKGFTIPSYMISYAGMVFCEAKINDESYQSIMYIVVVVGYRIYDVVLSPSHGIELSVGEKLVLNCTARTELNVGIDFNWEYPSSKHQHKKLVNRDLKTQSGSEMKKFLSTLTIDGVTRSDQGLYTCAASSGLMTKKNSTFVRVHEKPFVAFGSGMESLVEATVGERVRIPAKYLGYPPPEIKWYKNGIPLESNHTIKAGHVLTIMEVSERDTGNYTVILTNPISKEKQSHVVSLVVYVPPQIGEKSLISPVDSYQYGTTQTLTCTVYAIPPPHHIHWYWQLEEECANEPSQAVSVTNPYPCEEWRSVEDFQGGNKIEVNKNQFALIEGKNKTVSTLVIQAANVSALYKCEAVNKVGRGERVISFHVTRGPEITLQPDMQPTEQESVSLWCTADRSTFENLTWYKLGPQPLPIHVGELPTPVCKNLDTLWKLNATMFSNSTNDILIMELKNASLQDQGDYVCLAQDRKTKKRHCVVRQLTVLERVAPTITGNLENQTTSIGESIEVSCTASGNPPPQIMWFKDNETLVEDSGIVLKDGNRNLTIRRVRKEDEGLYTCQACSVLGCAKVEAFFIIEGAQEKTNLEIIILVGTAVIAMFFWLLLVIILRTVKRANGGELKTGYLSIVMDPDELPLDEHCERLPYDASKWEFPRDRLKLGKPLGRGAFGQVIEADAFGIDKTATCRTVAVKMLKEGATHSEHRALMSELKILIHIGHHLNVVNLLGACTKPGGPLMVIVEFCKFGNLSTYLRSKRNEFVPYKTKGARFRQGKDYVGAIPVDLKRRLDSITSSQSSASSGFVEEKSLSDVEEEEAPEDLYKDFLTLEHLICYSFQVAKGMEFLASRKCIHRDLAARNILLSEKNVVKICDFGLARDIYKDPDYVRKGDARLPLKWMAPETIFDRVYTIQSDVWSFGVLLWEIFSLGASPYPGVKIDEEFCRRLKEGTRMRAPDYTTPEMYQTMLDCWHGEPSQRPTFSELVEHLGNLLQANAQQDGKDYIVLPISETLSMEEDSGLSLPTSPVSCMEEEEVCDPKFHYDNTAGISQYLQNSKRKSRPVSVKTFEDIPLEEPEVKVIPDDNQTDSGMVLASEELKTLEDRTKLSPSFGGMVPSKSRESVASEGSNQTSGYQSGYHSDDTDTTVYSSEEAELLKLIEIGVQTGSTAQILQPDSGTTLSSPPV
The experiment in a line: Z'-LYTE kinase inhibition assay against KDR. Type of test: biochemical. As to conditions: Z'-LYTE method. As for the experimental part: Inhibitory activities of compounds against KDR (VEGFR2) were also measured by Invitrogen using Z′-LYTE® Method as described above with the following modification. The 2×KDR (VEGFR2)/Tyr 01 mixture is prepared in 50 mM HEPES pH 7.5, 0.01% BRIJ-35, 10 mM MgCl2, 1 mM EGTA. The final 10 μL Kinase Reaction consists of 0.5-11.7 ng KDR (VEGFR2) and 2 μM Tyr 01 in 50 mM HEPES pH 7.5, 0.01% BRIJ-35, 10 mM MgCl2, 1 mM EGTA. After the 1 hour Kinase Reaction incubation, 5 μL of a 1:256 dilution of Development Reagent B is added.
The scale utilized in Table 6 is as follows: +++ less than 100 nM; and ++ greater than 100 nM

For another test, the system named is A375 cells. In words: Inhibition of cancer cell growth, MTT or MTS assay, A375. Type of test: cell-based. As to conditions: Homo sapiens, A-375, 72 h incubation. As for the experimental part:
(§3) Inhibition of cell growth by compounds was measured using MTT or MTS assay. Tumor cell lines were purchased from ATCC (American Type Culture Collection, Manassas, Va.). All cell lines were maintained in RPMI 1640 (Hyclone) supplemented with 10% fetal bovine serum (FBS, Hyclone), glutamine (2 mM, Hyclone), and antibiotics (penicillin 100 U/mL and streptomycin 50 μg/mL) at 37° C. in a humidified atmosphere of 5% CO2 in air. Taxol (as a positive control, Sigma) and compounds were dissolved in DMSO (Sigma), and the final concentration of DMSO in the medium was 1%. Tumor cells were plated in 96-well plates at densities of about 2000 (A375) or 4000 (A549 and Colo205) cells/well of a 96-well plate and allowed to adhere/grow for 24 h. They were then treated with various concentrations of drug and incubated for 72 h. For MTT method, medium was then removed by inverting and tapping the plates. 100 μL of MTT (0.5 mg/ml) was added to each well followed by an incubated at 37° C. for 4 h. MTT was then removed and 200 μL of DMSO was added to each well, and the ODs at 570 nm were measured after a 5 second shaking cycle in a 96-well spectrophotometer. For MTS method, 20 μL MTS (CellTiter 96 Aqueous One Solution, Promega) was added to each well followed by an incubated at 37° C. for 2-4 h, solutions were then directly put in a 96-well spectrophotometer, and the ODs at 490 nm were measured.
(§4) All concentrations of compounds were tested in triplicate and controls were averaged over 4 wells. IC50 was calculated by plotting the concentration of compound vs the percentage of inhibition in treated wells using GraphPad Prism 5. […] The scale utilized in Tables 7-9 is as follows: +++ less than 1000 nM; ++ between 1000 nM and 5000 nM; and + greater than 5000 nM. The scale utilized in […]
For orientation: Tetrazolium assays rely on reduction of a dye to a coloured formazan, in cell work by metabolically active cells.

In another test the test system is A549 cells. The experiment in a line: Inhibition of cancer cell growth, MTT or MTS assay, A549. It counts as cell-based. As to conditions: Homo sapiens, 72 h incubation. The protocol: as §3, §4
The subject of the next test is Colo205 cells. In words: Inhibition of cancer cell growth, MTT or MTS assay, Colo205. Type of test: cell-based. As to conditions: Homo sapiens, COLO 205, 72 h incubation. As for the experimental part:
as §3, §4

For another test, the system named is Colo205 tumor xenograft. The experiment in a line: Inhibition of tumor growth in Colo205 tumor xenograft model. It counts as in vivo, BALB/c female nude mice. As to conditions: 30 mg/kg, qd X 21, i.p. The protocol:
Cells were implanted in BALB/c female nude mice and grown as tumor xenografts. When tumors achieved 150-250 mm^3, mice were assigned into treatment and control groups using randomized block design based upon their tumor volumes. Each group contained 6 tumor-bearing mice. Tumors were measured twice weekly in two dimensions using a caliper, and the tumor volume was calculated from two-dimensional measurements using the equation V=0.5×a×b^2 where a and b are the long and short diameters of the tumor, respectively. Relative tumor volume (RTV) was defined as TVt/TVi, the ratio of the volume on a given day (TVt) and the volume at the start of treatment (TVi). Relative tumor growth rate (T/C) was defined as RTVT/RTVC, the ratio of relative tumor volume of treatment group (RTVT) and relative tumor volume of control group (RTVC) on a given day. Inhibition of tumor growth in a Colo205 tumor xenograft model is shown below in Table 10 for compound C14.

This note sets out measurements from US10047059B2, “Substituted quinoxalines for inhibiting kinase activity” (NEUPHARMA, INC., priority 2012, dated 2018).

T1 sequence (P15056 whole entry): as the sequence (P15056 whole entry V600E) above, with E600V counted along it

For the compound `O=C(Nc1cccc(C(F)(F)F)c1)Nc1ccc(C(=O)c2ccc3ncc(N4CCNCC4)nc3c2)c(F)c1` [Compound C21, 1-(3-fluoro-4-(3-(piperazin-1-yl)quinoxaline-6-carbonyl)phenyl)-3-(3-(trifluoromethyl)phenyl)urea], the figures for the inhibition at 1 µM against BRAF, against BRAF V600E and at KDR (VEGFR2) were under 70%, over 89% and over 89%, respectively. Further, the concentration for half-maximal inhibition (IC50) (in general, the concentration needed to halve the response being measured) is under 100 nM at KDR (VEGFR2), under 1000 nM with A375 cells, under 1000 nM in the test on A549 cells and 1000 to 5000 nM in the test with Colo205 cells.

Turning to `O=C(Nc1ccc(C(=O)c2ccc3ncc(N4CCNCC4)nc3c2)cc1)Nc1cccc(Cl)c1` [Compound C11, 1-(3-chlorophenyl)-3-(4-(3-(piperazin-1-yl)quinoxaline-6-carbonyl)phenyl)urea], the values for the inhibition at 1 µM on BRAF, against BRAF V600E and against KDR (VEGFR2) were 70 to 89%, over 89% and 70 to 89%, respectively. In addition, the IC50 against KDR (VEGFR2) was over 100 nM; in the test with A375 cells it was 1000 to 5000 nM; with A549 cells, 1000 to 5000 nM; with Colo205 cells it was under 1000 nM.

As for `O=C(Nc1ccc(C(=O)c2ccc3ncc(N4CCNCC4)nc3c2)cc1)Nc1ccc(F)c(C(F)(F)F)c1` [Compound C14, 1-(4-fluoro-3-(trifluoromethyl)phenyl)-3-(4-(3-(piperazin-1-yl)quinoxaline-6-carbonyl)phenyl)urea], the inhibition (in general, the share of the control response that was lost under treatment) at 1 µM is under 70% against BRAF, over 89% at BRAF V600E and over 89% on KDR (VEGFR2). Further, the IC50 was over 100 nM on BRAF V600E; over 100 nM against KDR (VEGFR2); under 1000 nM in the test on A375 cells; under 1000 nM in the test with A549 cells; under 1000 nM in the test with Colo205 cells. Besides, the “T/C (relative tumor growth rate)” value in the test on Colo205 tumor xenograft was determined as 65%. Moreover, in the test on Colo205 tumor xenograft, the “Tumor Volume Post-treatment” value worked out at 1016 mm3. Also, in the test with Colo205 tumor xenograft (baseline), the “Tumor Volume Pre-treatment” value was 233 mm3.

Consider `O=C(Nc1ccc(C(=O)c2ccc3ncc(N4CCNCC4)nc3c2)cc1)Nc1ccc(Cl)c(C(F)(F)F)c1` [Compound C12, 1-(4-chloro-3-(trifluoromethyl)phenyl)-3-(4-(3-(piperazin-1-yl)quinoxaline-6-carbonyl)phenyl)urea], for which the inhibition at 1 µM against BRAF was under 70%; against BRAF V600E it was 70 to 89%; against KDR (VEGFR2), 70 to 89%. Moreover, the IC50 against KDR (VEGFR2) is over 100 nM; with A375 cells it was under 1000 nM; in the test with A549 cells, under 1000 nM; with Colo205 cells, 1000 to 5000 nM.

For the compound `O=C(Nc1ccc(C(=O)c2ccc3ncc(N4CCNCC4)nc3c2)cc1)Nc1cccc(C(F)(F)F)c1` [Compound C17, 1-(4-(3-(piperazin-1-yl)quinoxaline-6-carbonyl)phenyl)-3-(3-(trifluoromethyl)phenyl)urea], the inhibition at 1 µM against BRAF was under 70%; at BRAF V600E, over 89%; at KDR (VEGFR2), 70 to 89%. The IC50 against BRAF V600E is under 100 nM; against KDR (VEGFR2), under 100 nM; with A375 cells it was under 1000 nM; in the test on A549 cells, under 1000 nM; in the test with Colo205 cells, 1000 to 5000 nM.

For `O=C(Nc1ccc(Cl)cc1)Nc1ccc(C(=O)c2ccc3ncc(N4CCNCC4)nc3c2)cc1` [Compound C09, 1-(4-chlorophenyl)-3-(4-(3-(piperazin-1-yl)quinoxaline-6-carbonyl)phenyl)urea], the inhibition at 1 µM was 70 to 89% against BRAF, over 89% on BRAF V600E and under 70% on KDR (VEGFR2). In addition, the half-inhibitory concentration (IC50) in the test on A375 cells, with A549 cells and with Colo205 cells was 1000 to 5000 nM in each case.

For `O=C(Nc1ccc(C(=O)c2ccc3nccnc3c2)cc1)Nc1cccc(C(F)(F)F)c1` [Compound C01, 1-(4-(quinoxaline-6-carbonyl)phenyl)-3-(3-(trifluoromethyl)phenyl)urea], the results for the inhibition at 1 µM at BRAF, against BRAF V600E and against KDR (VEGFR2) were under 70%, over 89% and under 70%, respectively. In addition, the IC50 in the test on A375 cells was 1000 to 5000 nM; with A549 cells, over 5000 nM; in the test on Colo205 cells, over 5000 nM.
